From patent publication US7507859B2, “Functional synthetic molecules and macromolecules for gene delivery” (Fifth Base LLC, priority 2003, dated 2009)

What was measured:
[1] = Gel formation in DMSO; type: physicochemical; conditions: sonication (30 sec) or heating to 60 C for 5 minutes and cooling to room temperature
Procedure: The gels can be produced by either 1) sonication (30 sec) or by heating the suspensions to 60 C for 5 minutes and cooling to room temperature.

[2] = tested on: DNA; test: Ethidium bromide-DNA fluorescence quenching exclusion assay; type: binding; conditions: 2 mM HEPES, 150 mM NaCl, 10 μm EDTA, pH 7.4; 60 minutes incubation; triplicate
Procedure: Exclusion assay (adapted from; A. J. Geall, I. S. Blagbrough, Journal of Pharmaceutical and Biomedical Analysis 22 (2000) 849-859)
(§1) Five μg (5 μl of 1 mg/mL solution) of DNA and varying amount of amphiphiles (dependent on the Amphiphile/DNA ratio required) were diluted to 1000 μL with buffer (2 mM HEPES, 150 mM NaCl, 10 μm EDTA, pH 7.4). The solutions were mixed on a bench top vortex and incubated for 60 minutes at ambient temperature. Each solution was then diluted to 3 mL with buffer (2 mM HEPES, 150 mM NaCl, 10 μm EDTA, pH 7.4). Immediately prior to the analysis, 3 μL of Eth Br solution (0.6 mg/ml, 1.3 mM, effectively present in excess) was added, the sample was mixed on a bench top vortex, and the fluorescence measured. The fluorescence was expressed as the percentage of the maximum fluorescence signal when EthBr was bound to the DNA in the absence of amphiphile. Assays were run in triplicate. […] Compound 30a bound DNA and displaced EthBr.

[3] = tested on: chinese hamster ovary (CHO) cells; test: B-galactosidase transfection assay; type: cell-based; conditions: varying concentrations of lipid and DNA, triplicate, 96 well plates, chemiluminescent reporter
Procedure: Transfection assays were performed using the well established B-galactosidase transfection assay. In these experiments the B-galactosidase gene is transfected into cells. Next, the expressed enzyme then cleaves a chemiluminescent reporter that is detected. The assays are conducted with chinese hamster ovary (CHO) cells following a standard lipid transfection procedure. The procedure is performed on varying concentrations of lipid and DNA in triplicate in 96 well plates.

[4] = tested on: DNA; test: Exclusion assay after addition of an esterase (DNA release); type: biochemical; conditions: esterase added to the amphiphile-DNA solution; EthBr intercalates again
Procedure: as §1

Molecule	Gel formation in DMSO [1]	DNA binding and displacement of EtBr [2]	Transfection of the B-galactosidase gene [3]	DNA release from the amphiphile after esterase cleavage of the ester linkages [4]
CCCCCCCCCCCCCCCC(=O)O[C@@H]1[C@H](OC(=O)CCCCCCCCCCCCCCC)[C@@H](CO)O[C@H]1n1ccc(=O)[nH]c1=O [2′,3′dipalmitoyl uridine, 2′,3′palmitoyl uridine]	form gels in DMSO			
C[N+](C)(C)CC(COC(=O)CCCCCCCCCCC(=O)OCc1ccccc1[N+](=O)[O-])OC(=O)CCCCCCCCCCC(=O)OCc1ccccc1[N+](=O)[O-].[I-] (stereo not shown) [Compound 30b, {2,3-Bis-[11-(2-nitro-benzyloxycarbonyl)-undecanoyloxy]-propyl}-trimethyl-ammonium; iodide]		bound DNA and displaced EtBr		
CC(C)(C)OC(=O)CCCCCCCCCCC(=O)OCC(C[N+](C)(C)C)OC(=O)CCCCCCCCCCC(=O)OC(C)(C)C.[I-] (stereo not shown) [Compound 34, [2,3-Bis-(11-tert-butoxycarbonyl-undecanoyloxy)-propyl]-trimethyl-ammonium; iodide]		bound DNA and displaced EtBr		releasing the DNA from the amphiphile
CC(=O)OCC(C[N+](C)(C)C)OC(C)=O.[I-] (stereo not shown) [Compound 36, (2,3-Diacetoxy-propyl)-trimethyl-ammonium; iodide]		did not bind DNA and displace EthBr	minimal transfection activity	
C[N+](C)(C)CC(COC(=O)CCCCCCCCCCCOCc1ccccc1)OC(=O)CCCCCCCCCCCOCc1ccccc1.[I-] (stereo not shown) [Compound 40, [2,3-Bis-(12-benzyloxy-dodecanoyloxy)-propyl]-trimethyl-ammonium; iodide]			transfected the B-galactosidase gene	

Continued, in another order:

Gel formation in DMSO [1]	DNA binding and displacement of EtBr [2]	Molecule	Transfection of the B-galactosidase gene [3]	DNA release from the amphiphile after esterase cleavage of the ester linkages [4]
	bound DNA and displaced EtBr	C[N+](C)(C)CC(COC(=O)NCCCCCCCCCCCC(=O)OCC1CC(=O)Oc2cc(O)c(Br)cc21)OC(=O)NCCCCCCCCCCCC(=O)OCC1CC(=O)Oc2cc(O)c(Br)cc21.[I-] (stereo not shown) [Compound 26, {2,3-Bis-[11-(6-bromo-7-hydroxy-2-oxo-chroman-4-ylmethoxycarbonyl)-undecylcarbamoyloxy]-propyl}-trimethyl-ammonium iodide]		
	bound DNA and displaced EtBr	C[N+](C)(C)CC(COC(=O)CCCCCCCCCCC(=O)OCc1ccccc1)OC(=O)CCCCCCCCCCC(=O)OCc1ccccc1.[I-] (stereo not shown) [Compound 30a, [2,3-Bis-(11-benzyloxycarbonyl-undecanoyloxy)-propyl]-trimethyl-ammonium; iodide]	transfected the B-galactosidase gene	releasing the DNA from the amphiphile
	did not bind DNA and displace EthBr	C[N+](C)(C)CC(COC(=O)CCCCCCCCCCC(=O)O)OC(=O)CCCCCCCCCCC(=O)O.[I-] (stereo not shown) [Compound 35, [2,3-Bis-(11-carboxy-undecanoyloxy)-propyl]-trimethyl-ammonium; iodide]	minimal transfection activity	
	bound DNA and displaced EtBr	CCCCCCCCCCCCCC(=O)OCC(COC(=O)CCCCCCCCCCCCC)OC(=O)CCC(=O)OCC(COC(=O)CCC(=O)OC(COC(=O)CCCCCCCCCCCCC)COC(=O)CCCCCCCCCCCCC)OC(=O)CCC(=O)OC(COC(=O)CCC(=O)OCC[N+](C)(C)C)COC(=O)CCC(=O)OCC[N+](C)(C)C [Compound 85]		
	bound DNA and displaced EtBr	Trimethylamino-[G0]-PGLSA dendrimer iodide [Compound 44]		
	bound DNA and displaced EtBr	Trimethylamino-[G1]-PGLSA dendrimer iodide [Compound 47]		
